# In article PMC11933534, “Favipiravir induces HuNoV viral mutagenesis and infectivity loss with clinical improvement in immunocompromised patients” (Clinical Immunology (Orlando, Fla.), 2024):
# How the values were obtained:
# [1] = set-up: method as in PMID 30485769; settings: P2; favipiravir 1200 mg 12-hourly; caused treatment interruptions; cited from earlier work
# HuNoV [2] = tested on: HuNoV; set-up: method as in PMID 30485769; settings: P2; favipiravir 1200 mg 12-hourly, three courses; cited from earlier work
# mouse norovirus = tested on: mouse norovirus; set-up: method as in PMID 22809499; settings: 95%CI: 35–43 μg/mL; cited from earlier work
# zebrafish larvae = assay: Toxicity analysis in zebrafish larvae; assay type: in vivo; settings: 25 ng favipiravir or 4 ng tizoxanide, drug administered alone
# Procedure: (§1) First, compounds were dissolved in 100% DMSO (spectroscopy grade). To determine the correct dose for pericardial injections in zebrafish larvae of all compounds (i.e. favipiravir, tizoxanide and their 1:1 combination), a weight-dependent conversion was applied. For this purpose, the optimized and increased clinical dose of 400 mg favipiravir TDS and 200 mg tizoxanide BD was used. To ensure the weight-converted dose was not toxic for zebrafish larvae of 3 days post fertilization, a toxicity analysis was performed. […] The following parameters were investigated: touch response, morphology, posture, oedema, signs of necrosis, swim bladder and heartbeat.
# HuNoV GII.4 Sydney[P16] = assay: Antiviral treatment of HuNoV-infected zebrafish larvae (viral RNA by RT-qPCR); assay type: in vivo; settings: for Reduction in viral load with post-treatment sample: favipiravir 25 ng, inoculum P1 SS F carrying RdRp A44S change
# Procedure: as §1
# Zebrafish larvae were anesthetized and positioned as described previously, in short: zebrafish larvae of 3 days post fertilization were anesthetized and transferred to an agarose mold to position them on their dorsal side with the yolk facing upward. In every experiment, the injection needle was calibrated to ensure the precision of the injection volume. Microinjection was performed using an M3301R Manual Micromanipulator (WPI, Friedberg, Germany) and a FemtoJet 4i pressure microinjector (Eppendorf, Hamburg, Germany). Compound-treated zebrafish larvae received a 1 nL (1.5 nL in case of the combination treatment) injection of compound in the pericardial cavity, while negative control zebrafish were injected with an equal volume of DMSO. Subsequently, the zebrafish larvae received an injection of 3 nL virus in the yolk. After both injections, zebrafish larvae were transferred to 6-well plates with Danieau's solution and further maintained in an incubator with a 14/10 h light/dark cycle at 32 °C.
# Zebrafish larvae were homogenized (Precellys 24, Bertin Technologies, Montigny-le-Bretonneux, France), the homogenates were cleared by centrifugation (5 min, 9000 g), and RNA was extracted using the Direct-zol RNA kit (Zymo Research, Irvine, CA, USA), according to the manufacturer's protocol. RNA levels were quantified with a one-step RT-qPCR (iTaq Universal Probes One-Step Kit, Bio-Rad, Hercules, CA, USA) as previously described.
# HuNoV [3] = assay: HuNoV whole-genome sequencing of longitudinal patient stool samples; set-up: species or system human
# Text: Stool samples were collected from the patients. Full-length HuNoV genome sequences were obtained from samples using SureSelectXT target enrichment and Illumina sequencing. For each patient, a unique patient reference was generated by mapping the remaining reads of the first sample to the genotype reference from GenBank using bwa-mem. Reads from the subsequent samples of the same patient were mapped to this patient reference. Consensus sequences were aligned using MAFFT [58]. Only genomes with >80% genome coverage and a mean read depth of 100 or above were included in downstream analysis. Minority allele variants with a frequency of above 2% and a minimum of 2 supporting reads were identified at sites with a read depth of ≥5 using VarScan. For plotting polymorphism frequency, we have determined Watterson's theta which normalises for reading depth. Maximum likelihood phylogenies were constructed using RAxML [13], with the GTR model and 1000 bootstrap replicates. General data processing was carried out in R 3.6.1 using Rstudio 1.2. with the tidyverse family of packages (v1.2.1). Figures were made using the ggplot2 package.
structure (smiles),measurement,setting,value
NC(=O)c1nc(F)c[nH]c1=O [favipiravir],Adverse event,[1],recurring transaminitis of undetermined aetiology
same,Change in stool HuNoV viral load,HuNoV [2],"modest decrease in HuNoV VLs, but not viral clearance"
same,EC50 for mouse norovirus in vitro,mouse norovirus,EC50 Favipiravir for mouse norovirus (39 μg/mL [35])
same,Toxicity in the zebrafish larval model,zebrafish larvae,did not show toxicity
same,Reduction in viral RNA copies/zebrafish,"HuNoV GII.4 Sydney[P16]; favipiravir 25 ng single pericardial injection, inoculum P1 pre-treatment SS A, day 3 pi (peak), p = 0.0263",1.6 log10
same,Reduction in viral load with post-treatment sample,HuNoV GII.4 Sydney[P16],no reduction in viral load
same,Reduction in viral load with post-treatment sample,HuNoV GII.4 Sydney[P16]; listed as Favipiravir,cannot reduce
same,Reduction of HuNoV replication,"HuNoV GII.4 Sydney[P16]; monotherapy favipiravir 25 ng or tizoxanide 4 ng, in-house GII.4 Sydney[P16] stool sample, peak 2 dpi, p = 0.0006 and 0.001",> 1 log10
same,Favipiravir-associated viral sequence changes,"HuNoV [3]; P1, P2 and P4, coinciding with periods of favipiravir treatment, reducing after cessation",accumulation of A to G and T to C sequence changes
same,Favipiravir-associated viral sequence changes,"HuNoV [3]; P3, six samples",without evidence of accumulation of A to G and T to C favipiravir-associated sequence changes
